Here are results for 26 compounds from patent publication US20100022514A1, “Heterocycle Compounds and Methods of Use Thereof” (NORVARTIS AG, priority 2006, published 2010).

Like-named read-outs stand apart in the source and are kept apart here. Bounds are passed on as bounds.

The test system of test [1] is p21 promoter (p21-luc) in H1299 cells. The experiment in a line: p21 promoter luciferase assay using stably transfected p21-luc in H1299 cells. Format: cell-based. The settings on record: Homo sapiens, NCI-H1299. In outline: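 H1299 cells stably carrying a p21 promoter–luciferase reporter, grown in RPMI 1640/10% FBS under Geneticin selection, seeded about 5000 cells/well and incubated overnight at 37 C. Compound exposure lasted one day. Cells were then lysed and luciferase luminescence measured.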

For another test, the target named is T1, HDAC-1 (Homo sapiens, UniProt Q13547).
T1 construct: made in house
T1 sequence (Q13547 whole entry): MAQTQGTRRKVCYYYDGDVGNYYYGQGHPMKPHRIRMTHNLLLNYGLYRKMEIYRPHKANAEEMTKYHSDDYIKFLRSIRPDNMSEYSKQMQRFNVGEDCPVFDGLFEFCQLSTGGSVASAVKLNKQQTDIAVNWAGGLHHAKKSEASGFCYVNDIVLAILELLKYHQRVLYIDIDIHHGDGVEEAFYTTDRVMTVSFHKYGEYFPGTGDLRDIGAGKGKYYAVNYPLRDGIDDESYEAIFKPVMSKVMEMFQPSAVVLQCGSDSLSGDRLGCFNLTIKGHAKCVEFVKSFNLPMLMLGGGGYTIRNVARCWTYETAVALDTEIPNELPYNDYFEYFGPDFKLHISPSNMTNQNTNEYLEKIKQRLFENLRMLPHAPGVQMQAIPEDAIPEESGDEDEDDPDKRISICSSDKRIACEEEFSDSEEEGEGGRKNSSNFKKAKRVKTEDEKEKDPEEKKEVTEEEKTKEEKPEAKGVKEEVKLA
In words: Deacetylase fluorescence assay (HDAC-1). Format: biochemical. In outline:
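Flag-tagged HDAC-1 immunopurified from overexpressing 293-derived cells was assayed in 25 mM Tris-HCl pH 8.0, 137 mM NaCl, 2.7 mM KCl, 1 mM MgCl2 with Fluor de Lys substrate (50 uM) and inhibitor. Deacetylation was read by fluorescence after trypsin developer containing TSA.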

In the case of `COc1ccc(CC(=O)N2CCc3ccc(/C=C/C(=O)NO)cc3C2)cc1` [Example 65, (E)-N-Hydroxy-3-{2-[2-(4-methoxy-phenyl)-acetyl]-1,2,3,4-tetrahydro-isoquinolin-7-yl}-acrylamide], the AC50 – broadly, the concentration giving half of the maximal activity seen – in test [1] is above 1000 nM. Moreover, the half-inhibitory concentration (IC50) (in general, the concentration that gives 50% inhibition) at HDAC-1 (read-out: HDAC-1 IC50) was below 100 nM.

Turning to `O=C(/C=C/c1ccc2c(c1)CN(C(=O)Cc1ccc(Cl)cc1)CC2)NO` [Example 66, (E)-3-{2-[2-(4-Chloro-phenyl)-acetyl]-1,2,3,4-tetrahydro-isoquinolin-7-yl}-N-hydroxy-acrylamide], in test [1], the AC50 was above 1000 nM. For the same compound, on HDAC-1 (read-out: HDAC-1 IC50), the IC50 was below 100 nM.

Consider `O=C(/C=C/c1ccc2c(c1)CN(C(=O)Cc1ccc(Cl)c(Cl)c1)CC2)NO` [Example 67, (E)-3-{2-[2-(3,4-Dichloro-phenyl)-acetyl]-1,2,3,4-tetrahydro-isoquinolin-7-yl}-N-hydroxy-acrylamide], for which, in test [1], the AC50 was above 1000 nM. Besides, on HDAC-1 (read-out: HDAC-1 IC50), the IC50 was below 100 nM.

In the case of `O=C(/C=C/c1ccc2c(c1)CCN(CCc1c[nH]c3ccccc13)C2)NO` [Example 68, (E)-N-Hydroxy-3-{2-[2-(1H-indol-3-yl)-ethyl]-1,2,3,4-tetrahydro-isoquinolin-6-yl}-acrylamide], the AC50 in test [1] was above 1000 nM. In addition, the IC50 on HDAC-1 (read-out: HDAC-1 IC50) is below 100 nM.

`O=C(/C=C/c1ccc2c(c1)CCN(CCc1cnn3ccccc13)C2)NO` [Example 69, (E)-N-Hydroxy-3-[2-(2-pyrazolo[1,5-a]pyridin-3-yl-ethyl)-1,2,3,4-tetrahydro-isoquinolin-6-yl]-acrylamide] displayed an AC50 in test [1] above 1000 nM. Moreover, at HDAC-1 (read-out: HDAC-1 IC50), the IC50 is below 100 nM.

`Cc1[nH]c2ccccc2c1CCN1CCc2cc(/C=C/C(=O)NO)ccc2C1` [Example 70, (E)-N-Hydroxy-3-{2-[2-(2-methyl-1H-indol-3-yl)-ethyl]-1,2,3,4-tetrahydro-isoquinolin-6-yl}-acrylamide]: the AC50 in test [1] is 100 to 1000 nM. The same compound registered an IC50 at HDAC-1 below 100 nM.

As for `Cc1nn2ccccc2c1CCN1CCc2ccc(/C=C/C(=O)NO)cc2CC1` [Example 71, (E)-N-Hydroxy-3-{3-[2-(2-methyl-pyrazolo[1,5-a]pyridin-3-yl)-ethyl]-2,3,4,5-tetrahydro-1H-benzo[d]azepin-7-yl}-acrylamide], in test [1], the AC50 is above 1000 nM. Moreover, at HDAC-1 (read-out: HDAC-1 IC50), the IC50 lay in the range of 100 to 1000 nM.

Take `CCc1nn2ccccc2c1CCN1CCc2cc(/C=C/C(=O)NO)ccc2C1` [Example 72, (E)-3-{2-[2-(2-Ethyl-pyrazolo[1,5-a]pyridin-3-yl)-ethyl]-1,2,3,4-tetrahydro-isoquinolin-6-yl}-N-hydroxy-acrylamide]: in test [1], the AC50 fell in the range of 100 to 1000 nM. Also, the IC50 on HDAC-1 (read-out: HDAC-1 IC50) was below 100 nM.

In turn, `CCc1nn2ccccc2c1CCN1CCc2cc(CCC(=O)NO)ccc2C1` [Example 73, 3-{2-[2-(2-Ethyl-pyrazolo[1,5-a]pyridin-3-yl)-ethyl]-1,2,3,4-tetrahydro-isoquinolin-6-yl}-N-hydroxy-propionamide] came in with an AC50 in test [1] above 1000 nM. The IC50 at HDAC-1 (read-out: HDAC-1 IC50) was 100 to 1000 nM.

In turn, `CC(C)(C)c1[nH]c2ccccc2c1CCN1CCc2cc(/C=C/C(=O)NO)ccc2C1` [Example 74, (E)-3-{2-[2-(2-tert-Butyl-1H-indol-3-yl)-ethyl]-1,2,3,4-tetrahydro-isoquinolin-6-yl}-N-hydroxy-acrylamide] showed an AC50 in test [1] of 100 to 1000 nM. Also, the IC50 at HDAC-1 (read-out: HDAC-1 IC50) was below 100 nM.

Turning to `O=C(/C=C/c1ccc2c(c1)CCN(CCc1ccccc1)C2)NO` [Example 75, (E)-N-Hydroxy-3-(2-phenethyl-1,2,3,4-tetrahydro-isoquinolin-6-yl)-acrylamide], in test [1], the AC50 was above 1000 nM. The IC50 on HDAC-1 (read-out: HDAC-1 IC50) is below 100 nM.

With `O=C(/C=C/c1ccc2c(c1)CCN(CCC1CCCCC1)C2)NO` [Example 76, (E)-3-[2-(2-Cyclohexyl-ethyl)-1,2,3,4-tetrahydro-isoquinolin-6-yl]-N-hydroxy-acrylamide], the AC50 in test [1] was above 1000 nM. Further, the IC50 at HDAC-1 (read-out: HDAC-1 IC50) was below 100 nM.

In turn, `O=C(/C=C/c1ccc2c(c1)CCN(Cc1ccccc1)C2)NO` [Example 77, (E)-3-(2-Benzyl-1,2,3,4-tetrahydro-isoquinolin-6-yl)-N-hydroxy-acrylamide] returned an AC50 in test [1] above 1000 nM. The IC50 at HDAC-1 (read-out: HDAC-1 IC50) was in the range of 100 to 1000 nM.

`Cc1noc(-c2ccccc2)c1CCN1CCc2cc(/C=C/C(=O)NO)ccc2C1` [Example 78, (E)-N-Hydroxy-3-{2-[2-(3-methyl-5-phenyl-isoxazol-4-yl)-ethyl]-1,2,3,4-tetrahydro-isoquinolin-6-yl}-acrylamide] displayed an AC50 in test [1] above 1000 nM. Further, the IC50 at HDAC-1 (read-out: HDAC-1 IC50) is below 100 nM.

On to `Cc1[nH]c2ccccc2c1CC(=O)N1CCc2cc(/C=C/C(=O)NO)ccc2C1` [Example 79, (E)-N-Hydroxy-3-{2-[2-(2-methyl-1H-indol-3-yl)-acetyl]-1,2,3,4-tetrahydro-isoquinolin-6-yl}-acrylamide], for which, in test [1], the AC50 was above 1000 nM. The IC50 at HDAC-1 (read-out: HDAC-1 IC50) is below 100 nM.

In test [1], `Cc1[nH]c2ccccc2c1CCN1CCc2ccc(/C=C/C(=O)NO)cc2CC1` [Example 80, (E)-N-Hydroxy-3-{3-[2-(2-methyl-1H-indol-3-yl)-ethyl]-2,3,4,5-tetrahydro-1H-benzo[d]azepin-7-yl}-acrylamide] had an AC50 above 1000 nM. For the same compound, the IC50 at HDAC-1 (read-out: HDAC-1 IC50) was below 100 nM.

In turn, `O=C(/C=C/c1ccc2c(c1)CCN(S(=O)(=O)c1ccccc1)C2)NO` [Example 81, (E)-3-(2-Benzenesulfonyl-1,2,3,4-tetrahydro-isoquinolin-6-yl)-N-hydroxy-acrylamide] gave an AC50 in test [1] above 1000 nM. The IC50 at HDAC-1 (read-out: HDAC-1 IC50) lay in the range of 100 to 1000 nM.

With `COc1ccc(S(=O)(=O)N2CCc3cc(/C=C/C(=O)NO)ccc3C2)cc1` [Example 82, (E)-N-Hydroxy-3-[2-(4-methoxy-benzenesulfonyl)-1,2,3,4-tetrahydro-isoquinolin-6-yl]-acrylamide], in test [1], the AC50 is above 1000 nM. Also, the IC50 at HDAC-1 (read-out: HDAC-1 IC50) is 100 to 1000 nM.

Compound `COc1cccc(S(=O)(=O)N2CCc3cc(/C=C/C(=O)NO)ccc3C2)c1` [Example 83, (E)-N-Hydroxy-3-[2-(3-methoxy-benzenesulfonyl)-1,2,3,4-tetrahydro-isoquinolin-6-yl]-acrylamide] yielded an AC50 in test [1] above 1000 nM. In addition, the 50% inhibitory concentration (IC50) on HDAC-1 (read-out: HDAC-1 IC50) is 100 to 1000 nM.

`COc1cccc(S(=O)(=O)N2CCc3cc(CCC(=O)NO)ccc3C2)c1` [Example 84, N-Hydroxy-3-[2-(3-methoxy-benzenesulfonyl)-1,2,3,4-tetrahydro-isoquinolin-6-yl]-propionamide] returned a half-maximal activity concentration (AC50) in test [1] above 1000 nM. Moreover, the IC50 on HDAC-1 (read-out: HDAC-1 IC50) lay in the range of 100 to 1000 nM.

`Cc1c(CCN2CCc3cc(/C=C/C(=O)NO)ccc3C2)cnn1-c1ccccc1` [Example 85, (E)-N-Hydroxy-3-{2-[2-(5-methyl-1-phenyl-1H-pyrazol-4-yl)-ethyl]-1,2,3,4-tetrahydro-isoquinolin-6-yl}-acrylamide] registered an AC50 in test [1] above 1000 nM. The IC50 on HDAC-1 (read-out: HDAC-1 IC50) is below 100 nM.

As to `CN(C)c1ccc(C(=O)N2CCc3cc(/C=C/C(=O)NO)ccc3C2)cc1` [Example 86, (E)-3-[2-(4-Dimethylamino-benzoyl)-1,2,3,4-tetrahydro-isoquinolin-6-yl]-N-hydroxy-acrylamide], the AC50 in test [1] is above 1000 nM. The IC50 at HDAC-1 (read-out: HDAC-1 IC50) was 100 to 1000 nM.

Turning to `CN(C)c1ccc(C(=O)N2CCc3cc(CCC(=O)NO)ccc3C2)cc1` [Example 87, 3-[2-(4-Dimethylamino-benzoyl)-1,2,3,4-tetrahydro-isoquinolin-6-yl]-N-hydroxy-propionamide], the AC50 in test [1] was above 1000 nM. In addition, the IC50 at HDAC-1 (read-out: HDAC-1 IC50) was in the range of 100 to 1000 nM.

Consider `COc1cccc(C(=O)N2CCc3cc(/C=C/C(=O)NO)ccc3C2)c1` [Example 88, (E)-N-Hydroxy-3-[2-(3-methoxy-benzoyl)-1,2,3,4-tetrahydro-isoquinolin-6-yl]-acrylamide], for which the AC50 in test [1] is above 1000 nM. In addition, the IC50 on HDAC-1 (read-out: HDAC-1 IC50) was 100 to 1000 nM.

The compound `COc1ccc(C(=O)N2CCc3cc(/C=C/C(=O)NO)ccc3C2)cc1` [Example 89, (E)-N-Hydroxy-3-[2-(4-methoxy-benzoyl)-1,2,3,4-tetrahydro-isoquinolin-6-yl]-acrylamide] yielded an AC50 in test [1] above 1000 nM. The IC50 on HDAC-1 (read-out: HDAC-1 IC50) fell in the range of 100 to 1000 nM.

In test [1], `CN(C)c1ccc(C(=O)N2CCc3ccc(CCC(=O)NO)cc3C2)cc1` [Example 90, 3-[2-(4-Dimethylamino-benzoyl)-1,2,3,4-tetrahydro-isoquinolin-7-yl]-N-hydroxy-propionamide] gave an AC50 above 1000 nM. Moreover, the concentration for half-maximal inhibition (IC50) at HDAC-1 (read-out: HDAC-1 IC50) is 100 to 1000 nM.
